Experimental findings from ChEMBL document CHEMBL1201862, “PubChem BioAssay data set” (2004) are described below.

What all share (test): NCI anticancer screen, dose series, 48 h
Test [1] relates to CAKI-1.
Test [2] relates to HCC 2998.
For test [3], the system named is BT-549.
In test [4] the test system is MDA-MB-231.
For test [5], the system named is PC-3.
Test [6] has as its system HCT-116.
In test [7] the test system is MOLT-4.
Test [8] concerns MDA-N.
For test [9], the system named is 786-0.
For test [10], the system named is NCI-H460.
Test [11] concerns NCI-H522.
Test [12] has as its system MCF7.
The test system of test [13] is SK-MEL-2.
The test system of test [14] is A549.
Test [15] relates to K562.
For test [16], the system named is HT-29.
The test system of test [17] is MDA-MB-435.
The subject of test [18] is CCRF-CEM.
The test system of test [19] is SN12C.
The subject of test [20] is T47D.

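Cultured in 96-well plates, cells were exposed to test compound for 48 hours across five concentrations. At the GI50, growth is halved.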 Activity calls are given as the source filed them. Cut-off read from the data, not from the text of the source: active = GI50 up to about 1.1 µM and inactive = higher.

Turning to `COC(=O)C1(O)c2ccccc2N=C2C(=O)c3ccccc3N21` (stereo not given) [METHYLISATOID], the GI50 in test [1] is > 100 µM (inactive); in [2], > 100 µM (inactive); in test [3], > 100 µM (inactive); in test [4], 41.6 µM (inactive); in [5], 36.6 µM (inactive); in test [6], > 100 µM (inactive). Besides, the GI50 is > 100 µM (inactive) in test [7]; 15.7 µM (inactive) in [8]; > 100 µM (inactive) in [9]; > 100 µM (inactive) in [10]; > 100 µM (inactive) in [11]; > 100 µM (inactive) in test [12]. The GI50 in test [13] was > 100 µM (inactive); in [14], > 100 µM (inactive); in [15], > 100 µM (inactive); in [16], > 100 µM (inactive); in test [17] it was 12.2 µM (inactive); in test [18], > 100 µM (inactive). In [19], the GI50 was > 100 µM (inactive).

Consider `Oc1ccc(Cl)cc1-c1cc(-c2ccccc2)nc(S)n1`, for which the GI50 in test [1] was > 100 µM (inactive); in test [2], > 100 µM (inactive); in test [4], 30.5 µM (inactive); in test [5] it was > 100 µM (inactive); in test [6], 28.8 µM (inactive); in [7], > 100 µM (inactive). In addition, the GI50 in [8] was > 100 µM (inactive); in [9], 26.3 µM (inactive); in test [10] it was > 100 µM (inactive); in test [11] it was > 100 µM (inactive); in [12], > 100 µM (inactive); in [13], 27.2 µM (inactive). The GI50 in test [20], in [14], in [15], in test [16], in test [17] and in [18] was > 100 µM (inactive) throughout. Besides, the GI50 in test [19] was 93.1 µM (inactive).

Turning to `S=C(c1c[nH]c2ccccc12)N1CCCCC1`, the GI50 in [1] was > 100 µM (inactive); in test [3], 92.9 µM (inactive); in test [4], > 100 µM (inactive); in test [5] it was 49.8 µM (inactive); in test [6] it was 95.1 µM (inactive); in test [7], 58.1 µM (inactive). The GI50 in test [8] was > 100 µM (inactive); in test [9] it was > 100 µM (inactive); in [10] it was > 100 µM (inactive); in [12] it was 84.1 µM (inactive); in test [13], > 100 µM (inactive); in [15], 72.4 µM (inactive). Further, the GI50 in [16] was > 100 µM (inactive); in [17] it was 85.5 µM (inactive); in [18], 89.9 µM (inactive); in test [19], > 100 µM (inactive).

For the compound `OCN(CO)c1ccc2c(c1)Cc1cc(F)ccc1-2`, the GI50 in [1] was 20 µM (inactive); in test [4], 16.4 µM (inactive); in test [5] it was 16.7 µM (inactive); in test [6], 39.5 µM (inactive); in test [7], 25.2 µM (inactive); in test [9], 30.1 µM (inactive). Further, the GI50 in test [10] was 24.7 µM (inactive); in [11], 19.5 µM (inactive); in test [12], 18.6 µM (inactive); in test [13], 21 µM (inactive); in [20] it was 17.8 µM (inactive); in test [14], 21.9 µM (inactive). The GI50 is 20.9 µM (inactive) in [15], 14.8 µM (inactive) in test [16], 18.1 µM (inactive) in test [17] and 18.2 µM (inactive) in test [19].

For `O=C1c2ccccc2OCC1/C=N/O` (stereo not given), the GI50 is > 100 µM (inactive) in [2]; > 100 µM (inactive) in test [6]; > 100 µM (inactive) in test [7]; > 100 µM (inactive) in [10]; 24.9 µM (inactive) in [11]; 29.6 µM (inactive) in test [12]. Moreover, the GI50 is 86.3 µM (inactive) in [13]; > 100 µM (inactive) in [14]; > 100 µM (inactive) in test [15]; 62.7 µM (inactive) in [16]; > 100 µM (inactive) in test [18]; > 80.5 µM (inactive) in test [19].

As to `O=C1CCC[C@H]2O[C@@H](COCc3ccccc3)C[C@@H]12`, the GI50 in [1], in test [4], in [5], in test [6], in test [7] and in [8] was > 100 µM (inactive) throughout. The GI50 in test [9], in test [10], in [12], in [13], in [20] and in test [14] was > 100 µM (inactive) in each case. Also, the GI50 in test [15], in [16], in test [17], in test [18] and in test [19] was > 100 µM (inactive) in each case.

As to `COc1ccccc1/C=C1\SC(=S)N(/C=C2\C(=O)Oc3ccccc3C2=O)C1=O`, the GI50 in [1] was 0.458 µM (active); in test [3], 21.1 µM (inactive); in test [4] it was 23 µM (inactive); in test [5], 38.5 µM (inactive); in test [6], 34.4 µM (inactive); in [7], 33.9 µM (inactive). Further, the GI50 in test [8] is 33.4 µM (inactive); in test [9], 34.8 µM (inactive); in test [11], 26.5 µM (inactive); in test [12], 35.5 µM (inactive); in [13] it was 21.9 µM (inactive); in test [14] it was 27.9 µM (inactive). Further, the GI50 in test [15] was 36.6 µM (inactive); in test [16], 38.7 µM (inactive); in [17] it was 25.6 µM (inactive); in test [18], 36.2 µM (inactive).

On to `C/C(Cc1ccc2c(c1)OCO2)=N\NC(=O)C(C)Sc1nnc(SC(C)C(=O)N/N=C(\C)Cc2ccc3c(c2)OCO3)s1` (stereo not given), for which the GI50 in [1] was > 100 µM (inactive); in test [2], > 100 µM (inactive); in test [3], > 100 µM (inactive); in [4], 84.7 µM (inactive); in test [5], > 100 µM (inactive); in [6], > 100 µM (inactive). For the same compound, the GI50 was 27.7 µM (inactive) in test [7]; > 100 µM (inactive) in test [8]; > 100 µM (inactive) in test [9]; > 100 µM (inactive) in [10]; 24.1 µM (inactive) in test [12]; > 100 µM (inactive) in [13]. In addition, the GI50 in test [14] was > 100 µM (inactive); in test [15] it was 32.1 µM (inactive); in [16], > 100 µM (inactive); in [17], > 100 µM (inactive); in test [18] it was 66.2 µM (inactive).

In the case of `CC(C)(C)c1ccc(O)c(C(c2ccc([N+](=O)[O-])cc2)c2cc(C(C)(C)C)ccc2O)c1`, the GI50 in test [1] is 1.51 µM (inactive); in test [2] it was 1.95 µM (inactive); in [4] it was 1.87 µM (inactive); in test [5], 1.85 µM (inactive); in test [6], 2.43 µM (inactive); in test [7] it was 2.07 µM (inactive). For the same compound, the GI50 is 2.04 µM (inactive) in [9]; 2.11 µM (inactive) in test [11]; 2 µM (inactive) in [12]; 1.81 µM (inactive) in test [13]; 2.65 µM (inactive) in [20]; 1.86 µM (inactive) in test [14]. Also, the GI50 in [15] was 2.73 µM (inactive); in test [16], 1.87 µM (inactive); in test [17], 1.78 µM (inactive); in test [18], 2.98 µM (inactive); in test [19], 2.38 µM (inactive).

With `COc1nc2ccc(COc3ccc(C(=O)O)cc3)cc2nc1OC`, the GI50 in [1] was 93.3 µM (inactive); in [2], 58.2 µM (inactive); in [4] it was > 100 µM (inactive); in test [5] it was 71.4 µM (inactive); in test [6], 39.9 µM (inactive); in test [7], > 100 µM (inactive). Further, the GI50 in test [8] is 38.2 µM (inactive); in test [9] it was > 100 µM (inactive); in [10] it was > 100 µM (inactive); in test [11], > 100 µM (inactive); in test [12] it was > 100 µM (inactive); in test [13] it was > 100 µM (inactive). The GI50 was > 100 µM (inactive) in test [20]; > 100 µM (inactive) in [14]; 67.1 µM (inactive) in test [15]; > 100 µM (inactive) in test [16]; 33.7 µM (inactive) in [17]; 36.6 µM (inactive) in [18]. Besides, the GI50 in test [19] was > 100 µM (inactive).

Regarding `Nc1cc(C(=O)O)nc(O)n1`, the GI50 in [1], in test [2], in test [3], in test [4], in test [5] and in [6] was > 100 µM (inactive) each time. Besides, the GI50 in test [7], in test [8], in test [9], in [10], in [11] and in test [12] was > 100 µM (inactive) in each case. Also, the GI50 in test [13], in test [14], in test [15], in test [16], in test [17] and in [18] was > 100 µM (inactive) throughout. In addition, the GI50 in test [19] was > 100 µM (inactive).

Take `CC1=C2C(O)C(C(C)C(=O)NCC(C)C)CCC2(C)C=CC1=O` (stereo not given): the GI50 in [1], in [2], in [6], in [7], in [10] and in [11] was > 100 µM (inactive) throughout. The GI50 in test [12], in test [13], in [14], in test [15], in test [16] and in test [18] was > 100 µM (inactive) each time. In addition, the GI50 in test [19] is > 100 µM (inactive).
